Laboratory results from paper PMC5676566 (Nature chemical biology, 2017).

Biological target: BG505 Env (pseudovirus) (Human immunodeficiency virus 1, UniProt Q2N0S5)
Experiment: pseudovirus neutralization, TZM-bl cells, luciferase
Format: cell-based
Settings: 1% DMSO; separate panel assay printed too (Supplementary Table 1)

- IC50: 1190 nM
Compound: COc1ccnc2[nH]cc(C(=O)C(=O)N3CCN(C(=O)c4ccccc4)C[C@H]3C)c12 [BMS-378806]
